Source: patent publication US10265270B2, “Solid dispersion of decoquinate, a preparation process and its application” (GUANGZHOU CAS LAMVAC BIOTECH CO., LTD., priority 2015, dated 2019)

Columns and labels:
[1] = Thermogravimetric analysis; format: physicochemical; details: at 250.5° C., heating rate 10° C./min, nitrogen
Experimental: The pure DQ was weighed for thermogravimetric analysis. The instruments used in the analysis included a balance with 0.0001 accuracy (Sartorius, available from Sartorius Scientific Instruments, Model: BSA124S) and a thermogravimetric analyzer (NETZSCH, Model: TG209F1, Germany).
Detection conditions, nitrogen: 20 mL/min, scanning procedures: temperature was increased to 350° C. from room temperature, heating rate: 10° C./min; detection was performed based on the General Rules for Thermal Analysis JY/T014-1996.

[2] = In vitro dissolution test (paddle method); format: physicochemical; details: cumulative in vitro dissolution rate, 0.1 N HCl and 10 mM SDS, 37° C., 50 rpm
Experimental: The dissolution medium was a solution of 0.1 N hydrochloric acid (HCl) and 10 mM sodium dodecyl sulfonate (SDS). The instrument used in the test was RC-6 dissolution rate apparatus (Tianjin). The instrument parameters were set to 37° C., 50 rpm, the paddle method. To each dissolution vessel was added 900 ml of dissolution medium followed by initiating the instrument. When the temperature of the medium in each vessel reached 37° C., corresponding testing sample was added. One ml of sample solution was taken out at time points of 10, 20, 40, 60, 90, 120, 180, 240 and 270 minute respectively, and then 1 ml of dissolution medium was added back to supplement the vessel volume. The sample solutions collected from dissolution testing was passed through a 0.45 μm filter and the filtrate was analyzed by HPLC (Agilent, 1260) to determine the amount of DQ. An isocratic mobile phase of 80% ethanol and 20% water and a wavelength 260 nm were chosen for HPLC analysis.

[3] = test system: Plasmodium berghei ANKA; assay: In vivo efficacy experiment, mice inoculated with sporozoites; details: NIH female mice, after 21 days; DQ 3, 10, 30 mg/kg; primaquine 30 mg/kg
Experimental: The NIH female mice used for the experiment were raised at least for 7 days after arrival. At the start of experiment, the mice were 7 weeks old. Only one mouse was housed in each cage maintained in a room with a temperature range of 18 to 26° C., a relative humidity of 34% to 68% in a 12/12 h light-dark cycle. Food and water were provided ad libitum during quarantine and throughout the study. This experiment was carried out in strict accordance with the relevant animal testing regulations (Guide for the Care and Use of Laboratory Animals, NRC publication, 2011 edition). The DQ suspension used in the animal experiment was from the product of Example 1, prepared with saline and subjected to ultrasonic treatment for 5 minutes. […] The detection of Plasmodium parasitemia was performed as follows: conventional method was used to count red blood cells per mm^3 of blood in that a thin film of blood was prepared and stained with 3% Giemsa for 20 minutes; and then the number of infected red blood cells per 1000 red blood cells was counted under oil microscope to obtain erythrocyte infected rate (EIR, %o). Survival rate was calculated on day 22 post-infection.
The dosage of product of Example 1 was calculated based on decoquinate mg/kg body weight, the negative control group used was saline, and the positive control group used 30 mg primaquine per kg body weight. […]

amount of DQ remaining by weight in thermogravimetric analysis [1] [% by weight] | Dissolved at 60 min ([2]; 60 min) | Dissolved at 90 min ([2]; 90 min) | Compound | animal survival [3]
99 | 6.87 | 14.60 | CCCCCCCCCCOc1cc2c(O)c(C(=O)OCC)cnc2cc1OCC [Pure DQ, Decoquinate] | 
 |  |  | COc1cc(NC(C)CCCN)c2ncccc2c1 (stereo not shown) [primaquine] | all animals survived
